Data set [1] is described as follows: Thermodynamic aqueous solubility of compound in PBS buffer at pH 7.4 at 25 degreeC measured after 24 hrs by UPLC analysis. The settings on record: read-out: Therm_solubility. The format is physicochemical.
Data set [2] in a line: Metabolic stability in rat liver S9 fraction assessed as half life at 100 uM measured upto 120 mins in presence of NADPH by HPLC analysis. Type of data set: ADME, subcellular.
In data set [3] the target is T1, DNA topoisomerase 2-alpha (Homo sapiens, UniProt P11388). The experiment in a line: Inhibition of human DNA topoisomerase 2 alpha assessed as relaxation of supercoiled plasmid pNO1 DNA incubated for 30 mins by fluorescence based analysis.
T1 sequence (P11388 whole entry): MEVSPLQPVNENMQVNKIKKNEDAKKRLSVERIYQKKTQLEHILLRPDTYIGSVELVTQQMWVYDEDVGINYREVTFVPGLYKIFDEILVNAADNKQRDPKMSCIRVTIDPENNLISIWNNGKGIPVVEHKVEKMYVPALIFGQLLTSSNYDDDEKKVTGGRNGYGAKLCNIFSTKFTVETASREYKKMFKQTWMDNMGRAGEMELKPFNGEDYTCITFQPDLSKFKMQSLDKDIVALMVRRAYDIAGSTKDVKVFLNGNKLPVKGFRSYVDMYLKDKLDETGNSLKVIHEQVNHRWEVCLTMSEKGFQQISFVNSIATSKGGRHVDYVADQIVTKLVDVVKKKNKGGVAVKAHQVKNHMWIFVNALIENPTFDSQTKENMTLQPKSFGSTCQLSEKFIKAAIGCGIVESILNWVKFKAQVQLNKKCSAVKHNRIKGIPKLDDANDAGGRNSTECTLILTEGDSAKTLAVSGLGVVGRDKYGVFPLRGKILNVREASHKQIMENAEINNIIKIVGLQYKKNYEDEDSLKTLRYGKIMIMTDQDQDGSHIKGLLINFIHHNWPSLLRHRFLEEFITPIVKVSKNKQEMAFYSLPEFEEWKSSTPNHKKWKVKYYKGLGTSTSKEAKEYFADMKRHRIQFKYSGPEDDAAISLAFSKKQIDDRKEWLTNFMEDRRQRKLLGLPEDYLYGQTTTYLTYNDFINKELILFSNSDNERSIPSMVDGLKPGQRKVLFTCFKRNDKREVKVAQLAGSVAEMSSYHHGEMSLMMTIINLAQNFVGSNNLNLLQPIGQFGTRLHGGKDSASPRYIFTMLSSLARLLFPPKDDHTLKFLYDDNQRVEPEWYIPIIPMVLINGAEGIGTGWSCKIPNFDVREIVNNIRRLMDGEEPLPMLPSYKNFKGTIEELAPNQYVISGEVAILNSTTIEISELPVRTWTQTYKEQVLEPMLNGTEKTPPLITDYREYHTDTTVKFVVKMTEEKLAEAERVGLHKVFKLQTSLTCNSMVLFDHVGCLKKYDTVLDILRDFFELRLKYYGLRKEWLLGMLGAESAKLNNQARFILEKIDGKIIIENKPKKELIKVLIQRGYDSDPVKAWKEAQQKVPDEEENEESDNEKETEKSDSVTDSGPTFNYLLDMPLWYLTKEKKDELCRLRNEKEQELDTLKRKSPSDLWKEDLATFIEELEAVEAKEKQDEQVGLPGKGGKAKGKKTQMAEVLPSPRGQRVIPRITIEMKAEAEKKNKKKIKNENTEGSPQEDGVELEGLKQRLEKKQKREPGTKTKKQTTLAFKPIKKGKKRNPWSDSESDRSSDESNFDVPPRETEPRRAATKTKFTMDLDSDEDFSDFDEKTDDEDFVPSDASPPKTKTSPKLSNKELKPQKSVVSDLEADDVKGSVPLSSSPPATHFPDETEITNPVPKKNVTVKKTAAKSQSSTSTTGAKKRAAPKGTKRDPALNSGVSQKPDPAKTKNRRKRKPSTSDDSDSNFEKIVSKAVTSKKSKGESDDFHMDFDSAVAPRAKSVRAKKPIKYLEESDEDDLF
The next data set concerns the target DNA topoisomerase 2-beta (Homo sapiens, UniProt Q02880). The experiment in a line: Inhibition of human DNA topoisomerase 2 beta assessed as relaxation of supercoiled plasmid pBR322 DNA incubated for 30 mins by ethidium bromide staining based agarose gel electrophoresis.
Another data set concerns the target T2, DNA topoisomerase 1 (Homo sapiens, UniProt P11387).
T2 sequence (P11387 whole entry): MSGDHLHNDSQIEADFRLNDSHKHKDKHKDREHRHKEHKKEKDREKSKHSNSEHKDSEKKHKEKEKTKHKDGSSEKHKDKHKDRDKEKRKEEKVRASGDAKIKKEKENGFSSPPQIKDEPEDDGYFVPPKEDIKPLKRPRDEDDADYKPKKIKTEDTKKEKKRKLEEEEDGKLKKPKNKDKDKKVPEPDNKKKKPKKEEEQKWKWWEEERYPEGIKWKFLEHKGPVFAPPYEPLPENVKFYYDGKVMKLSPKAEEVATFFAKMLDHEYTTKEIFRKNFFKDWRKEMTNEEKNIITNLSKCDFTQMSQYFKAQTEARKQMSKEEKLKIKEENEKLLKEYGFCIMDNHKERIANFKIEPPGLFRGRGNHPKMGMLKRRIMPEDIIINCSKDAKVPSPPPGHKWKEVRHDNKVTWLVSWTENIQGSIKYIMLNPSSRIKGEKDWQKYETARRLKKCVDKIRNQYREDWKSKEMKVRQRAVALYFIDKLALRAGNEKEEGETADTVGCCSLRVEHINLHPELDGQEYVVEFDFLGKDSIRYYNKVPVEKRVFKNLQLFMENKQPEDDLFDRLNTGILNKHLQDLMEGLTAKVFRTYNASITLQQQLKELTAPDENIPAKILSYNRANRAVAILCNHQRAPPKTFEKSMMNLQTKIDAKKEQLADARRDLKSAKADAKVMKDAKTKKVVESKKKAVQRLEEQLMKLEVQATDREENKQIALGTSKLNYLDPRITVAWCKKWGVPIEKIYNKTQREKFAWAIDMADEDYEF
The experiment in a line: Inhibition of human DNA Topoisomerase 1 assessed as relaxation of supercoiled plasmid pBR322 DNA incubated for 30 mins by ethidium bromide staining based agarose gel electrophoresis.

In another data set the test system is CCRF-CEM. The experiment in a line: Cytotoxicity against human CCRF-CEM cells assessed as reduction in cell viability at 10 uM by MTT assay. Type of data set: functional, cell-based.
In the next data set the test system is MOLT-4. The experiment in a line: Cytotoxicity against human MOLT-4 cells assessed as reduction in cell viability at 10 uM by MTT assay. The format is functional, cell-based.
The test system of a further data set is HCT-15. The experiment in a line: Cytotoxicity against human HCT-15 cells assessed as reduction in cell viability at 10 uM by MTT assay. The format is functional, cell-based.
In a further data set the test system is COLO 205. Briefly: Cytotoxicity against human COLO 205 cells assessed as reduction in cell viability at 10 uM by MTT assay. Type of data set: functional, cell-based.
The subject of a further data set is KM12. Briefly: Cytotoxicity against human KM12 cells assessed as reduction in cell viability at 10 uM by MTT assay. The format is functional, cell-based.
For another data set, the system named is HCC 2998. The experiment in a line: Cytotoxicity against human HCC 2998 cells assessed as reduction in cell viability at 10 uM by MTT assay. Type of data set: functional, cell-based.
Another data set deals with SW-620. The experiment in a line: Cytotoxicity against human SW620 cells assessed as reduction in cell viability at 10 uM by MTT assay. Type of data set: functional, cell-based.
Another data set relates to SR. The experiment in a line: Cytotoxicity against human SR cells assessed as reduction in cell viability at 10 uM by MTT assay. Type of data set: functional, cell-based.
Another data set relates to HT-29. The experiment in a line: Cytotoxicity against human HT-29 cells assessed as reduction in cell viability at 10 uM by MTT assay. The format is functional, cell-based.
For another data set, the system named is HL-60. Briefly: Cytotoxicity against human HL-60 cells assessed as reduction in cell viability at 10 uM by MTT assay. The format is functional, cell-based.
Another data set deals with K562. The experiment in a line: Cytotoxicity against human K562 cells assessed as reduction in cell viability at 10 uM by MTT assay. Type of data set: functional, cell-based.
For data set [4], the target named is T1, DNA topoisomerase 2-alpha. The experiment in a line: Inhibition of human DNA topoisomerase 2 alpha assessed as ATP hydrolysis measured for 30 mins by absorbance based assay.
Another data set concerns HCT-116. The experiment in a line: Cytotoxicity against human HCT-116 cells assessed as reduction in cell viability at 10 uM by MTT assay. Type of data set: functional, cell-based.

Calls of active or inactive are those of the source. The rule behind the calls is not given here.

Sequence of DNA topoisomerase 2-beta (Q02880 whole entry): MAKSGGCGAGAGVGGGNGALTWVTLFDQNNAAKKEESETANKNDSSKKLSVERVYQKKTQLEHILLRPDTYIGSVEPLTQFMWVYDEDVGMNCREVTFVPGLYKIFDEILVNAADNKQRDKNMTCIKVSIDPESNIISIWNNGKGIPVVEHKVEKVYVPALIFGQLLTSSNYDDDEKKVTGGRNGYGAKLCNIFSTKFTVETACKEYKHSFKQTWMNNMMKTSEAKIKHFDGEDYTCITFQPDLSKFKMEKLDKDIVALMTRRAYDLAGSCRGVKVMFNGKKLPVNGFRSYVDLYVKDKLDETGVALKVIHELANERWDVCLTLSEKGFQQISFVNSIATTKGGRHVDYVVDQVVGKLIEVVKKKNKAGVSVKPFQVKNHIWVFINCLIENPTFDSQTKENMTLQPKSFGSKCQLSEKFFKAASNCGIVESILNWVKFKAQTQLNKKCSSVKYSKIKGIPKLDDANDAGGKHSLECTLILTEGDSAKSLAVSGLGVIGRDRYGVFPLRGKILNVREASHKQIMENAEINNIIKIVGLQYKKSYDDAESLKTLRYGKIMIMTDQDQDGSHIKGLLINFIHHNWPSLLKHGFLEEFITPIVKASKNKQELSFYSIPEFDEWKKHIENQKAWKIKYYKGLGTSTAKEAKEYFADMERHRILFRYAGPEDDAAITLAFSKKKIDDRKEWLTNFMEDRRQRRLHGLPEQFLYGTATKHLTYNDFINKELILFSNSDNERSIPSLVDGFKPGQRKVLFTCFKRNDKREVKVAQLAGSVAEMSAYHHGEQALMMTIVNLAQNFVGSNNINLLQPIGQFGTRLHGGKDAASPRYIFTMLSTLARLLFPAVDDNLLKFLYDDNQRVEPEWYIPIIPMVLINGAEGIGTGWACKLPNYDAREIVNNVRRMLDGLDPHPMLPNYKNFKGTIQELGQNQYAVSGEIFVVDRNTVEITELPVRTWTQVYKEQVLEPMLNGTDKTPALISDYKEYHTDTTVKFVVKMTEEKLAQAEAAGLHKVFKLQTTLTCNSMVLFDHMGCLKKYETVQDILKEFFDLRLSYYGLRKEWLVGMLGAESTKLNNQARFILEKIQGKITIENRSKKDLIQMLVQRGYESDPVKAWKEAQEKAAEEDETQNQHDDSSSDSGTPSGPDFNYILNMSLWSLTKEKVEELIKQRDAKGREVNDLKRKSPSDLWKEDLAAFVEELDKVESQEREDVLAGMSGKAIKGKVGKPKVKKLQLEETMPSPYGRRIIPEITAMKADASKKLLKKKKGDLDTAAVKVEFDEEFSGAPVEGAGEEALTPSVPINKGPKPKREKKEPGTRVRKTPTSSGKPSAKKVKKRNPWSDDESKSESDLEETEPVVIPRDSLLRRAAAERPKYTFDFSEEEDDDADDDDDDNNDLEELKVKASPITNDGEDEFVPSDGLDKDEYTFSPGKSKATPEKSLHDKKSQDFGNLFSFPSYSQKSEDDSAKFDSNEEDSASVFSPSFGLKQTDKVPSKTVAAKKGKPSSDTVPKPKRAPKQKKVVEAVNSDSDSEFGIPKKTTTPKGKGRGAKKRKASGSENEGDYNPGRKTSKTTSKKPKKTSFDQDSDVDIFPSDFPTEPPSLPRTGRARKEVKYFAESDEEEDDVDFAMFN

Take `Cc1[nH]c(C(=O)Nc2ccc(C(N)=O)cc2OCc2ccc(C(=O)NCCN)cc2)c(Cl)c1Cl.Cl.Cl`: the solubility thermodynamic at 24 h in data set [1] is 9.2 µM. Further, the half-life at 100 µM in data set [2] was 1.67 h. For the same molecule, the figures for the IC50 (in data set [3]; on DNA topoisomerase 2-beta; on DNA topoisomerase 1) were 670 nM, 550 nM and > 5000 nM, respectively.

As to `Cc1[nH]c(C(=O)Nc2ccc(C(=O)NCCN)cc2OC(C)C)c(Cl)c1Cl.Cl`, the outcome in the data set on CCRF-CEM, in the data set with MOLT-4, in the data set with HCT-15, with COLO 205, with KM12 and in the data set on HCC 2998 was Active. Further, the outcome with SW-620, with SR, with HT-29, in the data set on HL-60, in the data set with K562 and in the data set on HCT-116 was Active. Besides, the solubility thermodynamic at 24 h in data set [1] stood at 16 µM. The half-life at 100 µM in [2] is > 5 h. The half-maximal inhibitory concentration (IC50) was 6000 nM in data set [3] and 2800 nM in data set [4].

For the origin of these results see ChEMBL document CHEMBL5346880, “ATP-competitive inhibitors of human DNA topoisomerase IIα with improved antiproliferative activity based on N-phenylpyrrolamide scaffold” (Eur J Med Chem, 2023).
